Experimental data taken from patent US4005213A, “2,5-Substituted-1,3,4-thiadiazoles as fungicides” (Schering Aktiengesellschaft, priority 1968, dated 1977).

Key:
Pythium ultimum [1] = assay: Limit concentration of soil-fungicidal effectiveness, Pythium ultimum infested soil, peas (Example 1); format: in vivo; settings: 20 to 23 days, 22°-25° C., germination at least 90% vs steamed soil; for minimal effective concentration: Globisporangium ultimum
Protocol: Limit concentrations of the soil-fungicidal effectiveness at homogeneous mixture of the products with the infested soil. Basic condition in the evaluation are a sound root formation without fungus necroses and germination of the seed of at least 90% compared with the result obtained in steamed soil. Per concentration there were seeded 25 grains of peas of the variety "Miracle of Kelvedon" (marrow pea) without a waiting period. the cultivation time in the tests was 20 to 23 days at a temperature of 22°-25° C. Four commercial products were included in the test series.
Pythium ultimum: Steamed compost soil was inoculated with mycelium of Pythium ultimum

Aspergillus niger = assay: Agar test, Aspergillus niger (Example 7); format: cell-based; settings: 10 ppm in malt extract agar, 5 days at 22° C.; control 100
Protocol: (§1) The fungicidal action of the agents according to the invention was tested in artificial nutrient media against plant-pathogenic fungi in Petri dishes (agar test). The procedure was to sterilize the medium consisting of 2% malt extract and 1.5% agar-agar powder. Before the solidification of the medium, the active substances were added to it, mixing thoroughly, so that the medium received 10 parts of active substance per million (ppm). After the solidification of the medium, the latter was inoculated with a platinum dropper which contained 100 spores each of the fungi to be tested, and after 5 days at 22° C., an evaluation was made by measuring the diameter of the colonies in mm.

Stemphylium ilicis = assay: Agar test, Stemphylium ilicis (Example 7); format: cell-based; settings: 10 ppm in malt extract agar, 5 days at 22° C.; control 100
Protocol: as §1

Pythium ultimum [2] = assay: Pea test in soil inoculated with Pythium ultimum (Example 2); format: in vivo; parameters: key to Root evaluation (1-4): 4 = white roots, no necroses … 1 = severe necroses, roots rotted; settings: for Root evaluation (1-4): 3 weeks
Protocol: Steamed compost soil was inoculated with mycelium of Pythium ultimum. […] The following table lists the number of germinated sound peas, the weight of the fresh plant, and a root evaluation after a cultivation period of 3 weeks at 22°-25° C.
4 = white roots, without fungus necroses
3 = white roots, slight fungus necroses
2 = brown roots, more intense fungus necroses
1 = severe fungus necroses, roots rotted

Rhizoctonia solani = assay: Pea test in soil inoculated with Rhizoctonia solani (Example 3); format: in vivo; settings: for Root evaluation (1-4): 3 weeks; for Number of sound peas after 3 wks.: 25 grains seeded
Source text: Steamed compost soil was inoculated with mycelium of Rhizoctonia solani. After homogeneous mixture of the products with the infested soil, the products were present in the form of 20% powder preparations, the seeding of 25 grains of marrow peas of the variety Miracle of Kelvedon per concentration was effected without waiting period in clay dishes holding 1 liter of soil. The table lists the number of germinated sound peas, the weight of the fresh plant, and a root evaluation after a cultivation period of 3 weeks at 22°-25° C.

[3] = 10 mg active ingr. per liter of soil
[4] = 20 mg active ingr. per liter of soil
[5] = 30 mg active ingr. per liter of soil
[6] = 50 mg active ingr. per liter of soil
[7] = 100 mg active ingr. per liter of soil

SMILES | minimal effective concentration (Pythium ultimum [1]) [µg/mL] | also measured
C[S+]([O-])c1nnc(CCl)s1 (stereo not shown) [Compound 2, 2-chloromethyl-5-methylsulfinyl-1,3,4-thiadiazole] | 30 | 
CC(C)[S+]([O-])c1nnc(C(Cl)Cl)s1 (stereo not shown) [Compound 6, 2-dichloromethyl-5-isopropylsulfinyl-1,3,4-thiadiazole] | > 200 | 
CCCCC[S+]([O-])c1nnc(C(Cl)Cl)s1 (stereo not shown) [Compound 7, 2-dichloromethyl-5-amylsulfinyl 1,3,4-thiadiazole] | > 200 | diameter of the colonies, Aspergillus niger (Aspergillus niger): 0 mm; diameter of the colonies, Stemphylium ilicis (Stemphylium ilicis): 0 mm
CCC[S+]([O-])c1nnc(C(Cl)(Cl)Cl)s1 (stereo not shown) [Compound 10, 2-trichloromethyl-5-propylsulfinyl-1,3,4-thiadiazole] | 100 | diameter of the colonies, Aspergillus niger (Aspergillus niger): 0 mm; diameter of the colonies, Stemphylium ilicis (Stemphylium ilicis): 0 mm
CC(C)[S+]([O-])c1nnc(C(Cl)(Cl)Cl)s1 (stereo not shown) [Compound 11, 2-trichloromethyl-5-isopropylsulfinyl-1,3,4-thiadiazole] | > 200 | 
CCCC[S+]([O-])c1nnc(C(Cl)(Cl)Cl)s1 (stereo not shown) [Compound 12, 2-trichloromethyl-5-butylsulfinyl-1,3,4-thiadiazole] | 200 | diameter of the colonies, Aspergillus niger (Aspergillus niger): 0 mm; diameter of the colonies, Stemphylium ilicis (Stemphylium ilicis): 0 mm
CCCCCCC[S+]([O-])c1nnc(C(Cl)(Cl)Cl)s1 (stereo not shown) [Compound 13, 2-trichloromethyl-5-heptylsulfinyl-1,3,4-thiadiazole] | > 200 | diameter of the colonies, Aspergillus niger (Aspergillus niger): 0 mm; diameter of the colonies, Stemphylium ilicis (Stemphylium ilicis): 0 mm
CCCCCCCC[S+]([O-])c1nnc(C(Cl)(Cl)Cl)s1 (stereo not shown) [Compound 14, 2-trichloromethyl-5-octylsulfinyl-1,3,4-thiadiazole] | > 200 | 
CS(=O)(=O)c1nnc(CCl)s1 [Compound 15, 2-chloromethyl-5-methylsulfonyl-1,3,4-thiadiazole] | 10 | Root evaluation (1-4) (Pythium ultimum [2]; [3]): 4; Root evaluation (1-4) (Pythium ultimum [2]; [4]): 4; Root evaluation (1-4) (Pythium ultimum [2]; [5]): 4
CC(C)S(=O)(=O)c1nnc(CCl)s1 [Compound 16, 2-chloromethyl-5-isopropylsulfonyl-1,3,4-thiadiazole] | 150 | 
CC(C)S(=O)(=O)c1nnc(C(Cl)Cl)s1 [Compound 20, 2-dochloromethyl-5-isopropylsulfonyl-1,3,4-thiadiazole] | 200 | 
CCS(=O)(=O)c1nnc(C(Cl)(Cl)Cl)s1 [Compound 22, 2-trichloromethyl-5-ethylsulfonyl-1,3,4-thiadiazole] | 50 | diameter of the colonies, Aspergillus niger (Aspergillus niger): 0 mm; diameter of the colonies, Stemphylium ilicis (Stemphylium ilicis): 0 mm
CC(C)S(=O)(=O)c1nnc(C(Cl)(Cl)Cl)s1 [Compound 24, 2-trichloromethyl-5-isopropylsulfonyl-1,3,4-thiadiazole] | 150 | diameter of the colonies, Aspergillus niger (Aspergillus niger): 0 mm; diameter of the colonies, Stemphylium ilicis (Stemphylium ilicis): 0 mm
CCCCS(=O)(=O)c1nnc(C(Cl)(Cl)Cl)s1 [Compound 25, 2-trichloromethyl-5-butylsulfonyl-1,3,4-thiadiazole] | > 200 | diameter of the colonies, Aspergillus niger (Aspergillus niger): 0 mm; diameter of the colonies, Stemphylium ilicis (Stemphylium ilicis): 0 mm
CS(=O)(=O)c1nnc(CBr)s1 [Compound 30, 2-bromomethyl-5-methylsulfonyl-1,3,4-thiadiazole] | 20 | Root evaluation (1-4) (Pythium ultimum [2]; [3]): 1; Number of sound peas after 3 wks. (Pythium ultimum [2]; 10 mg active ingr. per liter of soil, 25 grains seeded): 21; Root evaluation (1-4) (Pythium ultimum [2]; [4]): 4; Root evaluation (1-4) (Pythium ultimum [2]; [5]): 4
CCS(=O)(=O)c1nnc(CBr)s1 [Compound 31, 2-bromomethyl-5-ethylsulfonyl-1,3,4-thiadiazole] | 50 | 
C[S+]([O-])c1nnc(CF)s1 (stereo not shown) [Compound 33, 2-fluoromethyl-5-methylsulfinyl-1,3,4-thiadiazole] | 50 | 

SMILES | minimal effective concentration (Pythium ultimum [1]) [µg/mL] | also measured
CS(=O)(=O)c1nnc(CF)s1 [Compound 34, 2-fluoromethyl-5-methylsulfonyl-1,3,4-thiadiazole] | 50 | 
CC(C)C[S+]([O-])c1nnc(C(F)(F)F)s1 (stereo not shown) [Compound 37, 2-trifluoromethyl-5-isobutylsulfinyl-1,3,4-thiadiazole] | 30 | 
CCCCC[S+]([O-])c1nnc(C(F)(F)F)s1 (stereo not shown) [Compound 38, 2-trifluoromethyl-5-pentylsulfinyl-1,3,4-thiadiazole] | 100 | 
CCCCCC[S+]([O-])c1nnc(C(F)(F)F)s1 (stereo not shown) [Compound 39, 2-trifluoromethyl-5-hexylsulfinyl-1,3,4-thiadiazole] | 100 | 
CC(C)S(=O)(=O)c1nnc(C(F)(F)F)s1 [Compound 41, 2-trifluoromethyl-5-isopropylsulfonyl-1,3,4-thiadiazole] | 10 | 
CC(C)CS(=O)(=O)c1nnc(C(F)(F)F)s1 [Compound 42, 2-trifluoromethyl-5-isobutylsulfonyl-1,3,4-thiadiazole] | 20 | 
CCCCCCS(=O)(=O)c1nnc(C(F)(F)F)s1 [Compound 43, 2-trifluoromethyl-5-hexylsulfonyl-1,3,4-thiadiazole] | > 100 | 
CCCCCCCS(=O)(=O)c1nnc(C(F)(F)F)s1 [Compound 44, 2-trifluoromethyl-5-heptylsulfonyl-1,3,4-thiadiazole] | > 100 | 
CS(=O)(=O)c1nnc(C(F)(F)C(F)(F)F)s1 [Compound 45, 2-pentafluoroethyl-5-methylsulfonyl-1,3,4-thiadiazole] | 100 | 
CC(Cl)(Cl)c1nnc(S(C)(=O)=O)s1 [Compound 47, 2-(1,1-dichloroethyl)-5-methylsulfonyl-1,3,4-thiadiazole] | 80 | 
CCC(Cl)c1nnc([S+](C)[O-])s1 (stereo not shown) [Compound 48, 2-(1-chloropropyl)-5-methylsulfinyl-1,3,4-thiadiazole] | > 100 | 
CCC(Cl)c1nnc(S(C)(=O)=O)s1 (stereo not shown) [Compound 49, 2-(1-chloropropyl)-5-methylsulfonyl-1,3,4-thiadiazole] | 100 | 
CC(Br)c1nnc(S(C)(=O)=O)s1 (stereo not shown) [Compound 50, 2-(1-bromethyl)-5-methylsulfonyl-1,3,4-thiadiazole] | 40 | 
CC(C)C(Br)c1nnc(S(C)(=O)=O)s1 (stereo not shown) [Compound 51, 2-(1-bromisobutyl)-5-methylsulfonyl-1,3,4-thiadiazole] | > 100 | 
CCCCC(Br)c1nnc(S(C)(=O)=O)s1 (stereo not shown) [Compound 52, 2-(1-bromopentyl)-5-methylsulfonyl-1,3,4-thiadiazole] |  | Limit concentration of fungicidal effectiveness, Pythium ultimum (Pythium ultimum [1]): no effect
CC(C)CC(Br)c1nnc(S(C)(=O)=O)s1 (stereo not shown) [Compound 53, 2-(1-bromisopentyl)-5-methylsulfonyl-1,3,4-thiadiazole] |  | Limit concentration of fungicidal effectiveness, Pythium ultimum (Pythium ultimum [1]): no effect
O=[N+]([O-])c1c(Cl)c(Cl)c(Cl)c(Cl)c1Cl [Pentachloronitrobenzene, reference compound] |  | Root evaluation (1-4) (Rhizoctonia solani; [6]): 1; Number of sound peas after 3 wks. (Rhizoctonia solani; [6]): 4; Root evaluation (1-4) (Rhizoctonia solani; [7]): 4; Number of sound peas after 3 wks. (Rhizoctonia solani; [7]): 25
